The text below walks through data of US20250136586A1, “Substituted 7-(Pyrimidin-4-yl)Quinolin-4(1H)-One Compounds as Cyclin Dependent Kinase Inhibitors” (BeiGene, Ltd., priority 2022, published 2025).

The IC50 is the point on the concentration scale where inhibition reaches its midpoint.

The target of test [1] is CDK6/Cyclin D3 (Homo sapiens (Human), UniProt Q00534). Kind of test: TR-FRET kinase inhibition assay, CDK6/Cyclin D3. It is filed as biochemical. Particulars: 1 mM ATP, 0.15 μM Rb (Ser780)-biotin substrate, read-out: CDK6D3 IC50. The method in brief:
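Kinase preincubated 60 min at room temperature with 0–10 μM compound; reaction started with 1 mM ATP and 0.15 μM Rb (Ser780)-biotin, run 120 min at room temperature in HEPES pH 7.0, 50 mM MgCl2. pRb detected by TR-FRET (665/620 nm ratio); IC50 from four-parameter logistic fit.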

Test [2] concerns the target CDK4/Cyclin D1 (Homo sapiens (Human), UniProt P11802). Kind of test: TR-FRET kinase inhibition assay, CDK4/Cyclin D1. It is filed as biochemical. The note with it: 1 mM ATP, 0.15 μM Rb (Ser780)-biotin substrate, read-out: CDK4D1 IC50. The method in brief:
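Kinase was preincubated with compound for 60 min at room temperature, then reacted with ATP and Rb (Ser780)-biotin substrate for 120 min. IC50 came from a four-parameter logistic fit.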
For orientation: TR-FRET usually uses a lanthanide donor and a delayed reading to cut background.

SMILES strings stand for the structures.

CDK6/Cyclin D3, sequence (Q00534 whole entry): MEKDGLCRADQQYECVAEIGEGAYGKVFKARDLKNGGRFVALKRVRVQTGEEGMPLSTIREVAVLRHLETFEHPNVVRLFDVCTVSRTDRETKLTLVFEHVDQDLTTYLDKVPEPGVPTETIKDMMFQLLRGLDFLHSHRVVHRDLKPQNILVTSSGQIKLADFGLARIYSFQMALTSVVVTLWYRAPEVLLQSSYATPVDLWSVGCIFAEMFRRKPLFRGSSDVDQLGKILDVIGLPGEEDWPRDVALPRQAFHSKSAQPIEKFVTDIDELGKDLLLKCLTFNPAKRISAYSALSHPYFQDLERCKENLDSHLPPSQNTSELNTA
CDK6/Cyclin D3, sequence (P30281 whole entry partner): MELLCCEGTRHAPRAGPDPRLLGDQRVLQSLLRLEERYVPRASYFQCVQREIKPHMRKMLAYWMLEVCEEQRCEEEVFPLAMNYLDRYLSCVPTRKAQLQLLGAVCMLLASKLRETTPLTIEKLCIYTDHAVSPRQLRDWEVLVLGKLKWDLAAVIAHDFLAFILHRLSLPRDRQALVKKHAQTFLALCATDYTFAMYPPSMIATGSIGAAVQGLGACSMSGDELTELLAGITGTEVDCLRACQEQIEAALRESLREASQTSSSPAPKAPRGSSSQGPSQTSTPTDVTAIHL
CDK4/Cyclin D1, sequence (P11802 whole entry): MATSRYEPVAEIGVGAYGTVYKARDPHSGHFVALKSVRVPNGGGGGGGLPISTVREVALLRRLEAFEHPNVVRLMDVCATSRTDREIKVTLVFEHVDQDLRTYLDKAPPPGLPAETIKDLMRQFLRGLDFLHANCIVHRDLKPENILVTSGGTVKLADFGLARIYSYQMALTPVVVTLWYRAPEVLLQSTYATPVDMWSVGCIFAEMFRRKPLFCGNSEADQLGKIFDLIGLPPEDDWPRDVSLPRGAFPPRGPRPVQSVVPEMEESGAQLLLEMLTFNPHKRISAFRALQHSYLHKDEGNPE
CDK4/Cyclin D1, sequence (P24385 whole entry partner): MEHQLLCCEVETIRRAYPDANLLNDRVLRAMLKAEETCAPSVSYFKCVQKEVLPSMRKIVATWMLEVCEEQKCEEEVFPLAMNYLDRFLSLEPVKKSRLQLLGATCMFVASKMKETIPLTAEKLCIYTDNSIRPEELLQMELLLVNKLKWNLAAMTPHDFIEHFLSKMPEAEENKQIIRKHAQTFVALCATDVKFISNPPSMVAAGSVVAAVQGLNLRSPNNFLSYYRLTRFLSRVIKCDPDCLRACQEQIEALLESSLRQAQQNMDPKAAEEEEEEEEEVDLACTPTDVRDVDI

Regarding `CC(C)n1c(CN2CC[C@@H](F)C2)cc(=O)c2cc(F)c(-c3nc(N[C@@H]4CCOC[C@H]4O)ncc3F)cc21` [Example 114, 6-fluoro-7-(5-fluoro-2-(((3S,4R)-3-hydroxytetrahydro-2H-pyran-4-yl)amino)pyrimidin-4-yl)-2-(((R)-3-fluoropyrrolidin-1-yl)methyl)-1-isopropylquinolin-4(1H)-one], the IC50 came out at 640 nM in test [1] and 40 nM in test [2].

Regarding `Cc1c(CO)n(C(C)C)c2cc(-c3nc(N[C@@H]4CCOC[C@H]4O)ncc3F)ccc2c1=O` [Example 119, 7-(5-fluoro-2-(((3S,4R)-3-hydroxytetrahydro-2H-pyran-4-yl)amino)pyrimidin-4-yl)-2-(hydroxymethyl)-1-isopropyl-3-methylquinolin-4(1H)-one], the figures for the IC50 in test [1] and in test [2] were 273 nM and 9.1 nM, respectively.

Regarding `Cc1c(CN(C)C)n(C(C)C)c2cc(-c3nc(N[C@@H]4CCOC[C@H]4O)ncc3F)ccc2c1=O` [Example 108, 2-((dimethylamino)methyl)-7-(5-fluoro-2-(((3S,4R)-3-hydroxytetrahydro-2H-pyran-4-yl)amino)pyrimidin-4-yl)-1-isopropyl-3-methylquinolin-4(1H)-one], the IC50 in test [1] was found to be 392 nM; in test [2], 14 nM.

For `Cc1c(CN2CCC[C@@H](O)C2)n(C(C)C)c2cc(-c3nc(N[C@@H]4CCOC[C@H]4O)ncc3F)ccc2c1=O` [Example 122, 7-(5-fluoro-2-(((3S,4R)-3-hydroxytetrahydro-2H-pyran-4-yl)amino)pyrimidin-4-yl)-2-(((R)-3-hydroxypiperidin-1-yl)methyl)-1-isopropyl-3-methylquinolin-4(1H)-one], the IC50 in test [1] is 68.8 nM; in test [2], 1.6 nM.

As to `CC(C)n1c(CN2CCC3(CCCO3)C2)cc(=O)c2ccc(-c3nc(N[C@@H]4CCOC[C@H]4O)ncc3F)cc21` (stereo partly drawn) [Example 91, 2-((1-oxa-7-azaspiro[4.4]nonan-7-yl)methyl)-7-(5-fluoro-2-(((3S,4R)-3-hydroxytetrahydro-2H-pyran-4-yl)amino)pyrimidin-4-yl)-1-isopropylquinolin-4(1H)-one], the IC50 amounted to 1060 nM in test [1] and 24 nM in test [2].

`Cc1c(CNC2CC2)n(C(C)C)c2cc(-c3nc(N[C@@H]4CCOC[C@H]4O)ncc3F)ccc2c1=O` [Example 109, 2-((cyclopropylamino)methyl)-7-(5-fluoro-2-(((3S,4R)-3-hydroxytetrahydro-2H-pyran-4-yl)amino)pyrimidin-4-yl)-1-isopropyl-3-methylquinolin-4(1H)-one]: the figures for the IC50 in test [1] and in test [2] were 211 nM and 6.2 nM, respectively.

For the compound `CC(C)n1c(CN2CC[C@H](F)C2)cc(=O)c2ccc(-c3nc(N[C@@H]4CCOC[C@H]4O)ncc3F)cc21` [Example 27, 7-(5-fluoro-2-(((3S,4R)-3-hydroxytetrahydro-2H-pyran-4-yl)amino)pyrimidin-4-yl)-2-(((S)-3-fluoropyrrolidin-1-yl)methyl)-1-isopropylquinolin-4(1H)-one], the IC50 was 148 nM in test [1] and 5.7 nM in test [2].

On to `COc1ccc(NCc2cc(=O)c3ccc(-c4nc(N[C@@H]5CCOC[C@H]5O)ncc4F)cc3n2C(C)C)cc1` [Example 101, 7-(5-fluoro-2-(((3S,4R)-3-hydroxytetrahydro-2H-pyran-4-yl)amino)pyrimidin-4-yl)-1-isopropyl-2-(((4-methoxyphenyl)amino)methyl)quinolin-4(1H)-one], for which the IC50 in test [1] was found to be 312 nM; in test [2], 26 nM.

In the case of `Cc1c(CN)n(C(C)C)c2cc(-c3nc(N[C@@H]4CCOC[C@H]4O)ncc3F)ccc2c1=O` [Example 120, 2-(aminomethyl)-7-(5-fluoro-2-(((3S,4R)-3-hydroxytetrahydro-2H-pyran-4-yl)amino)pyrimidin-4-yl)-1-isopropyl-3-methylquinolin-4(1H)-one], the IC50 in test [1] came out at 265 nM; in test [2] it was 5.9 nM.

Consider `CC(C)n1c(CN2CCC[C@H](F)C2)cc(=O)c2ccc(-c3nc(N[C@@H]4CCOC[C@H]4O)ncc3F)cc21` [Example 69, 7-(5-fluoro-2-(((3S,4R)-3-hydroxytetrahydro-2H-pyran-4-yl)amino)pyrimidin-4-yl)-2-(((S)-3-fluoropiperidin-1-yl)methyl)-1-isopropylquinolin-4(1H)-one], for which the IC50 in test [1] amounted to 693 nM; in test [2], 21 nM.

For the compound `Cc1c(CN2[C@H](C)COC[C@H]2C)n(C(C)C)c2cc(-c3nc(N[C@@H]4CCOC[C@H]4O)ncc3F)ccc2c1=O` [Example 71, 2-(((3R,5R)-3,5-dimethylmorpholino)methyl)-7-(5-fluoro-2-(((3S,4R)-3-hydroxytetrahydro-2H-pyran-4-yl)amino)pyrimidin-4-yl)-1-isopropyl-3-methylquinolin-4(1H)-one], the concentration for half-maximal inhibition (IC50) is 140 nM in test [1] and 2.7 nM in test [2].

As to `CC(C)n1c(CN2CC(F)C2)cc(=O)c2ccc(-c3nc(N[C@@H]4CCOC[C@H]4O)ncc3F)cc21` [Example 74, 7-(5-fluoro-2-(((3S,4R)-3-hydroxytetrahydro-2H-pyran-4-yl)amino)pyrimidin-4-yl)-2-((3-fluoroazetidin-1-yl)methyl)-1-isopropylquinolin-4(1H)-one], the IC50 in test [1] stood at 810 nM; in test [2] it was 30 nM.

On to `Cc1c(CN[C@H]2C[C@H](F)C2)n(C(C)C)c2cc(-c3nc(N[C@@H]4CCOC[C@H]4O)ncc3F)ccc2c1=O` [Example 111, 7-(5-fluoro-2-(((3S,4R)-3-hydroxytetrahydro-2H-pyran-4-yl)amino)pyrimidin-4-yl)-2-((((1r,3R)-3-fluorocyclobutyl)amino)methyl)-1-isopropyl-3-methylquinolin-4(1H)-one], for which the values for the IC50 in test [1] and in test [2] were 352 nM and 16 nM, respectively.

On to `CNC(=O)c1cc(=O)c2ccc(-c3nc(N[C@@H]4CCOC[C@H]4O)ncc3F)cc2n1C(C)C` [Example 7, 7-(5-fluoro-2-(((3S,4R)-3-hydroxytetrahydro-2H-pyran-4-yl)amino)pyrimidin-4-yl)-1-isopropyl-N-methyl-4-oxo-1,4-dihydroquinoline-2-carboxamide], for which the half-inhibitory concentration (IC50) came to 574 nM in test [1] and 14 nM in test [2].

Take `CC(C)n1c(CN2CCC[C@]3(CCNC3=O)C2)cc(=O)c2ccc(-c3nc(N[C@@H]4CCOC[C@H]4O)ncc3F)cc21` [Example 105, (S)-7-((7-(5-fluoro-2-(((3S,4R)-3-hydroxytetrahydro-2H-pyran-4-yl)amino)pyrimidin-4-yl)-1-isopropyl-4-oxo-1,4-dihydroquinolin-2-yl)methyl)-2,7-diazaspiro[4.5]decan-1-one]: the IC50 in test [1] is 291 nM; in test [2], 4.1 nM.

As for `CC(C)n1c(CN2C[C@@H](O)[C@H](F)C2)cc(=O)c2ccc(-c3nc(N[C@@H]4CCOC[C@H]4O)ncc3F)cc21` [Example 46, 7-(5-fluoro-2-(((3S,4R)-3-hydroxytetrahydro-2H-pyran-4-yl)amino)pyrimidin-4-yl)-2-(((3R,4R)-3-fluoro-4-hydroxypyrrolidin-1-yl)methyl)-1-isopropylquinolin-4(1H)-one], the IC50 in test [1] was found to be 480 nM; in test [2] it was 12 nM.

Consider `CC(C)n1c(CN2CCC[C@@H](O)C2)cc(=O)c2ccc(-c3nc(N[C@@H]4CCOC[C@H]4O)ncc3F)cc21` [Example 57, 7-(5-fluoro-2-(((3S,4R)-3-hydroxytetrahydro-2H-pyran-4-yl)amino)pyrimidin-4-yl)-2-(((R)-3-hydroxypiperidin-1-yl)methyl)-1-isopropylquinolin-4(1H)-one], for which the concentration for half-maximal inhibition (IC50) was found to be 352 nM in test [1] and 16 nM in test [2].

In the case of `Cc1c(CN2CCC(C)(O)CC2)n(C(C)C)c2cc(-c3nc(N[C@@H]4CCOC[C@H]4O)ncc3F)ccc2c1=O` [Example 103, 7-(5-fluoro-2-(((3S,4R)-3-hydroxytetrahydro-2H-pyran-4-yl)amino)pyrimidin-4-yl)-2-((4-hydroxy-4-methylpiperidin-1-yl)methyl)-1-isopropyl-3-methylquinolin-4(1H)-one], the IC50 in test [1] came to 516 nM; in test [2], 12 nM.

Regarding `CC(C)n1c(CN2CC[C@@H](O)C2)cc(=O)c2ccc(-c3nc(N[C@@H]4CCOC[C@H]4O)ncc3F)cc21` [Example 87, 7-(5-fluoro-2-(((3S,4R)-3-hydroxytetrahydro-2H-pyran-4-yl)amino)pyrimidin-4-yl)-2-(((R)-3-hydroxypyrrolidin-1-yl)methyl)-1-isopropylquinolin-4(1H)-one], the 50% inhibitory concentration (IC50) in test [1] stood at 682 nM; in test [2], 22 nM.
